Read-outs that look alike come from different tables or passages of the source.
Columns and labels:
[1] = design: method as in earlier work; conditions: experimentally obtained; QSAR training and test sets; cited from earlier work
[2] = design: method as in doi:10.1556/1326.2017.00147; conditions: rat, intragastric administration of the extract, postmortem; cited from earlier work
[3] = biomimetic chromatography (BMC, IAM, CHOL) with the QSAR equation, compared with computational logBB; conditions: for ability to cross the BBB (conclusion): from biomimetic and computational studies
Excerpt: To calculate the logBB values for the tested saponins, the QSAR model previously obtained was used. In this QSAR predictive model the BBB penetration potential was correlated with the lipophilic properties (logPow), excess molar refraction (E), the difference between the logarithms of n-octanol/water and cyclohexane/water partition coefficients values (ΔlogP) being the hydrogen-bonding potential:logBB = −0.114 − 0.098 ΔlogP + 0.278 logPow + 0.218E(2)
Chromatographic biomimetic methods, including IAM, BMC, and CHOL, were used to determine BBB permeability of the tested triterpenoid saponins. For this purpose, the values of logkw, being the logarithm of retention factor extrapolated to pure water, were determined. These values were compared with the logBB values calculated in silico and those obtained using the QSAR model (Equation (2)). Logkw is recognized to be an alternative to the logPow lipophilicity descriptor [96]. On the other hand, lipophilicity is one of the most important features influencing the ability of substances to cross biological barriers.
Moreover, for the micellar biomimetic studies (BMC), Foley’s equation [97] (Equation (3)) was used to calculate important physicochemical parameters, i.e., the analyte–micelle association constant (KMA) and the partition coefficient of the analyte between the stationary phase and water (Psw). These parameters can describe possible interactions in the micellar system since the Brij35 micelle can be treated as a simple model of a biological barrier. (3) 1/k= KMA/PSWΦCM+ 1/PSWΦ where k is the retention factor, CM is the concentration of micelles, KMA is the analyte–micelle association constant, PSW is the partition coefficient of the analyte between the stationary phase and water, and Φ is the volume ratio of the stationary phase to the mobile phase volume.
As mentioned above the logkw parameter, obtained from the biomimetic chromatographic systems, is recognized to be an alternative to the logarithm of the n-octanol/water partition coefficient (logPow) lipophilicity descriptor. Therefore, logkw-BMC, logkw-IAM, and logkw-CHOL values were used for the calculation of logBB based on the QSAR equation (Equation (2)), instead of the logPow parameter. The values of logBB-BMC, logBB-IAM, and logBB-CHOL were thus calculated. In Figure 2 the above-mentioned logBB values and logBB in silico calculated using the ACD/Percepta software, as well as those of logKMA that can be treated as an equivalent to the logBB parameter, are presented.
The solutions of analytical standards of the studied triterpenoid saponins were prepared in methanol (Merck, Darmstadt, Germany; p.a.) at a concentration of 1 mg/mL. […] In the research each system was optimized previously. In the IAM and CHOL studies, acetonitrile-phosphate buffer solutions (0.3; 0.4; 0.5; 0.6 v/v; pH 7.4) were used as mobile phases. In the case of BMC analysis, the buffered solution of Brij35 (0.075; 0.1; 0.125; 0.15 mol/dm^3; pH 7.4) was used as the mobile phase with the addition of isopropanol as an organic modifier (7% v/v). The buffer was prepared from the solutions of Na2HPO4 and citric acid (0.01 mol/dm^3) and the pH 7.4 value was fixed before the preparation of the mobile phases.
The following stationary phases were employed: IAM.PC.DD2 100 × 4.6 mm i.d., 10 µm (Regis Chemicals Company, Morton Grove, IL, USA); Cosmosil Cholester, 75 × 2 mm i.d., 2.5 µm (Genore, Warsaw, Poland); Purosphere RP-18e (ODS), 125 × 4 mm i.d., 5 µm (Merck, Darmstadt, Germany). The flow rates were established as follows: 1.3 mL/min (IAM), 0.4 mL/min (CHOL), and 1 mL/min (BMC). The tested saponins were detected with UV light at 254 nm. All measurements were made at 25 °C. The dead time values were measured from the non-retained compound (citric acid) peaks. All reported logkw values are the average of at least three independent measurements.

[4] = test system: memory deficits and anxiety induced by Aβ25-35; conditions: rats, Aβ25-35 into the lateral ventricles; cited from earlier work
[5] = test system: hippocampal CA1 region pyramidal neurons; design: method as in PMID 19433075; conditions: ischemia/reperfusion; cited from earlier work
[6] = test system: ethanol-induced memory impairment; design: method as in PMID 18521966; conditions: mice; cited from earlier work

Row | Compound | logBB [1] | further results
1 | CC(C)NCC(O)COc1ccc(CC(N)=O)cc1 (stereo not shown) [29122-68-7] | –1 | –
2 | Clc1ccc(NC2=NCCN2)c(Cl)c1 [23830-88-8] | 0.16 | –
3 | Cc1ccccc1NC1=NCCN1 [36318-56-6] | 0.04 | –
4 | CC(C)NCC(O)COc1ccc(CCOCC2CC2)cc1 (stereo not shown) [63659-18-7] | 0.39 | –
5 | CN(C)C(=O)C(CCN1CCC(O)(c2ccc(Cl)cc2)CC1)(c1ccccc1)c1ccccc1 [53179-11-6] | 0.77 | –
6 | COc1ccc2nc([S+]([O-])Cc3ncc(C)c(OC)c3C)[nH]c2c1 (stereo not shown) [73590-58-6] | –0.82 | –
7 | CC1(C)CC[C@]2(C(=O)O)CC[C@]3(C)C(=CC[C@@H]4[C@@]5(C)C[C@@H](O)[C@H](O)C(C)(C)[C@@H]5CC[C@]43C)[C@@H]2[C@@H]1O [Arjunic acid] | – | presence in brain tissues [2]: present in rat brain tissues; ability to cross the BBB (conclusion) [3]: can penetrate the BBB
8 | CNC(C)CC1CCCCC1 (stereo not shown) [101-40-6] | 1.08 | –
9 | Cc1cc(Cl)ccc1NC1=NCCN1 [4201-26-7] | 0.14 | –
10 | Cc1ccc(Cc2cnc(NCCSCc3ccc(CN(C)C)o3)[nH]c2=O)cn1 [83903-06-4] | –1.06 | –
11 | O=C(CCC1CCN(Cc2ccccc2)CC1)c1ccc2c(c1)NCCCC2 [142852-50-4] | 1.14 | –
12 | C=CCC1(C(C)CCC)C(=O)NC(=O)NC1=O (stereo not shown) [76-73-3] | 0.2 | –
13 | CC1(C)CCC2(C(=O)OC3OC(COC4OC(CO)C(O)C(O)C4O)C(O)C(O)C3O)CCC3(C)C(=CCC4C5(C)CCC(OC6OCC(O)C(O)C6O)C(C)(CO)C5CCC43C)C2C1 (stereo not shown) [Akebia saponin D] | – | effect on memory deficits and anxiety symptoms [4]: could significantly ameliorate the memory deficits and anxiety symptoms; ability to cross the BBB (conclusion) [3]: can penetrate the BBB
14 | C[C@@H]1O[C@@H](O[C@H]2[C@H](OC(=O)[C@]34CCC(C)(C)C[C@H]3C3=CC[C@@H]5[C@@]6(C)C[C@H](O)[C@H](O[C@@H]7O[C@H](CO)[C@@H](O)[C@H](O)[C@H]7O)C(CO)(CO)[C@@H]6CC[C@@]5(C)[C@]3(C)C[C@H]4O)OC[C@H](O)[C@@H]2O)[C@H](O)[C@H](O)[C@H]1O[C@@H]1OC[C@@H](O)[C@H](O[C@@H]2OC[C@](O)(CO)[C@H]2O)[C@H]1O [Platycodin D] | – | protection from ischemic damage [5]: protects the hippocampal CA1 region pyramidal neurons from an ischemic damage; average logBB ([3]; average of all obtained logBB values (biomimetic and computational)): −1.681; ability to cross the BBB (conclusion) [3]: does not cross this barrier; logBB ([3]; span of the obtained values over the methods): −2 to −1.29; effect on ethanol-induced memory impairment [6]: could improve ethanol-induced memory impairment
15 | CN1C(=O)CN=C(c2ccccc2)c2cc(Cl)ccc21 [439-14-5] | 0.56 | –
16 | Cc1c(O)cccc1C(=O)N[C@@H](CSc1ccccc1)[C@H](O)CN1C[C@H]2CCCC[C@H]2C[C@H]1C(=O)NC(C)(C)C [159989-64-7] | –0.93 | –
17 | CN1CC[C@]23c4c5ccc(O)c4O[C@H]2[C@@H](O)C=C[C@H]3[C@H]1C5.Cl [52-26-6] | –0.16 | –
18 | Brc1cc(Br)c(NC2=NCCN2)c(Br)c1 [38941-33-2] | 0.58 | –
19 | CC(C)=C[C@H]1C[C@](C)(O)[C@@H]2[C@H]3CC[C@@H]4[C@@]5(C)CC[C@H](O[C@@H]6O[C@H](CO)[C@@H](O)[C@H](O[C@@H]7O[C@H](CO)[C@@H](O)[C@H](O)[C@H]7O)[C@H]6O[C@@H]6O[C@@H](CO)[C@H](O)[C@H]6O)C(C)(C)[C@@H]5CC[C@@]4(C)[C@@]34CO[C@@]2(C4)O1 [Bacoside A] | – | ability to cross the BBB (conclusion) [3]: can penetrate the BBB
